From ChEMBL document CHEMBL1133998, “Studies directed towards the refinement of the pancratistatin cytotoxic pharmacophore” (2001)
Values after ≈ are worked out from the molar mass of the structure shown.

Assays:
Format in all cases: functional
[1] = tested on: P388; assay: Effective dose against the p-388 mouse leukemia cell line; conditions: read-out: ED50 (the source's name)
[2] = tested on: NCI-H226; assay: Effective dose for inhibition of proliferation of the lung cancer cell line NCI-H226; conditions: Homo sapiens, read-out: ED50 (the source's name)
[3] = tested on: CCRF-CEM; assay: Effective dose for inhibition of proliferation of the leukemia cell line CCRF-CEM; conditions: Homo sapiens, read-out: ED50 (the source's name)
[4] = tested on: HL-60; assay: Effective dose for inhibition of proliferation of the leukemia cell line HL-60(TB); conditions: Homo sapiens, read-out: ED50 (the source's name)

| Structure (SMILES) | EC50 [1] [µg/mL] | EC50 [2] [µg/mL] | EC50 [3] [µg/mL] | EC50 [4] [µg/mL] |
| --- | --- | --- | --- | --- |
| O=C1N[C@H]2[C@H](O)CCC[C@@H]2c2cc3c(cc21)OCO3 | 40.1 (≈ 153 µM) | – | – | – |
| O=C1N[C@H]2C[C@H](O)[C@@H](O)C[C@@H]2c2cc3c(cc21)OCO3 | 0.45 (≈ 1.62 µM) | 0.65 (≈ 2.34 µM) | 0.55 (≈ 1.98 µM) | 0.89 (≈ 3.21 µM) |
